Values of other authors in patent US20180298405A1, “METHODS AND COMPOSITIONS TO INCREASE HUMAN SOMATIC CELL NUCLEAR TRANSFER (SCNT) EFFICIENCY BY REMOVING HISTONE H3-LYSINE TRIMETHYLATION, AND DERIVATION OF HUMAN NT-ESC” (CHILDREN'S MEDICAL CENTER CORPORATION, priority 2015, published 2018).

Tested on: SETDB1 H3K9me3 HMTase; H3K27me3 and H3K9me3
Conditions: Lee et al., 2013; cited from earlier work

Structure (SMILES): Nc1nccc2c1ncn2[C@@H]1C=C(CO)[C@@H](O)[C@H]1O [3-Deazaneplanocin A]
- effect on H3K27me3 and H3K9me3 levels: reduced levels of both H3K27me3 and H3K9me3
- effect on SETDB1 H3K9me3 HMTase: decrease of SETDB1 H3K9me3 HMTase
